Test results from PMC9574860, “Chemical Toolkit for PARK7: Potent, Selective, and High-Throughput” (Journal of Medicinal Chemistry, 2022).
Each block holds one compound with its values, some of them ahead of it.

Experiments:
PARK7 [1] = molecular target: T1, PARK7 (Homo sapiens, UniProt Q99497); test: Gel-based competition assay with probe 8RK59, PARK7 band; type: biochemical; parameters: GST (N, cleaved yes); made in house; host or cells: E. coli BL21(DE3) Rosetta2; details: compound 2 μM, 1 h; PARK7 and UCHL1 1 μM each; then 8RK59 2 μM 30 min; Figure 3B
T1 sequence (Q99497 1-189): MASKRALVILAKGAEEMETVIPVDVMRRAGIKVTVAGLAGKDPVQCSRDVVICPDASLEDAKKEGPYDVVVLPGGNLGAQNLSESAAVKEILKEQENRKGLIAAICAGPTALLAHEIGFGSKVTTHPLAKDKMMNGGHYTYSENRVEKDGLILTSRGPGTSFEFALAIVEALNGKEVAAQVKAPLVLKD
Protocol: (§1) To assess the inhibitory potency and selectivity of these compounds toward PARK7 and UCHL1, we performed a gel-based competition assay (Figure 3A).[36] A mixture of equal amounts of PARK7 and UCHL1 (1 μM) was treated with each of the synthesized compounds (2 μM) for 1 h, followed by incubation with fluorescent probe 8RK59 (2 μM) for 30 min. Samples were resolved by SDS-PAGE, and the gel was scanned for fluorescence. Inhibition of PARK7 or UCHL1 is reflected by the disappearance of their corresponding bands (Figure 3B). […] The inhibition potential of JYQ-88 against PARK7 was assessed in a similar assay where PARK7 was incubated with a serial dilution of JYQ-88 before treatment with probe 8RK59 (Figure 3C). A clear inhibition is visible at 0.5 μM, and full inhibition is achieved between 1 and 2 μM. […] The selectivity of JYQ-88 between UCHL1 and PARK7 was further confirmed in a direct competition assay between equal amounts of PARK7 and UCHL1 (Figure 3F). PARK7 inhibition was observed starting from 0.5 μM JYQ-88, whereas inhibition of UCHL1 was only detected at 20 μM. Since JYQ-88 and 8RK64 are enantiomers, we assumed that the interactions with PARK7 should be similar. To investigate how the chiral center influences the selectivity, we solved the crystal structure of the PARK7−JYQ-88 complex with 1.42 Å resolution (Figure 3G, Table S1, PDB 7PA3). The global positioning of the inhibitor in between the two α-helices was similar to that for 8RK64. […] This way, the thiazolo-pyridine part of JYQ-88 is bound in a similar manner as 8RK64 and the earlier observed interactions are largely the same. The formation of the isothiourea moiety, stabilized by the interaction with Glu18, and the interaction between the thiazole amine and the amide NH2 of the Asn76 side chain are still present. However, the interaction between the azidoacetyl carbonyl with the Leu128 backbone carbonyl can no longer be observed due to the rotation of the azidoacetyl moiety. The Lys132 residue also seems to have rotated (compared to Figure 2C).
(§2) The assay was performed in Tris buffer as described above.

UCHL1 = molecular target: T2, UCHL1 (Homo sapiens, UniProt P09936); test: Gel-based competition assay with probe 8RK59, UCHL1 band; type: biochemical; details: compound 2 μM, 1 h; PARK7 and UCHL1 1 μM each; then 8RK59 2 μM 30 min; Figure 3B
T2 sequence (P09936 1-223): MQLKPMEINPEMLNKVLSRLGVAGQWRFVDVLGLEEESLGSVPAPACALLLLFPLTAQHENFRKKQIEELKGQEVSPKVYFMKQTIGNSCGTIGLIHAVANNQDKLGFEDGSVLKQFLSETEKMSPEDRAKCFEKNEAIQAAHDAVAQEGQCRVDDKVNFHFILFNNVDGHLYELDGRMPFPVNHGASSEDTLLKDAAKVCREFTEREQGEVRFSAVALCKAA
Protocol: as §1, §2

PARK7 [2] = molecular target: T1, PARK7; test: FP assay with Rhodamine110 probe JYQ-107 (IC50 and hit validation); type: binding; parameters: GST (N, cleaved yes); made in house; host or cells: E. coli BL21(DE3) Rosetta2; details: for inhibition at 12.5 µM: read-out: FP assay %Inhibiton (12.5 µM); for inhibition at 37.5 µM: read-out: FP assay %Inhibiton (37.5 µM); for inhibition at 100 µM: read-out: FP assay %Inhibiton (100 µM)
Protocol: The assay was performed using the conditions as described above with a reaction volume of 20 μL per well in triplicate. Stock solutions of JYQ-88 of 1 and 0.1 mM were prepared. […] The FP signal was monitored with a BMG Labtech PHERAstar plate reader (λex/em 480/520 nm) for 2 h.
The validation was performed using the conditions as described above with a reaction volume of 20 μL per well in triplicate. […] The FP signal was monitored with a BMG Labtech PHERAstar plate reader (λex/em 480/520 nm) for 2 h. The relative loss of FP signal compared with reference controls was used to calculate the remaining enzyme activity. Inhibition percentage of these 40 compounds was plotted as a heatmap using GraphPad Prism 9.0.1 software. Color gradients indicate inhibition percentage, no inhibiton (white) and full inhibition (blue).

PARK7 [3] = molecular target: T1, PARK7; test: DiFMUAc PARK7 activity assay; type: biochemical; parameters: GST (N, cleaved yes); made in house; host or cells: E. coli BL21(DE3) Rosetta2; details: for inhibition at 12.5 µM: read-out: DiFMuAc assay %Inhibiton (12.5 µM); for inhibition at 37.5 µM: read-out: DiFMuAc assay %Inhibiton (37.5 µM); for inhibition at 100 µM: read-out: DiFMuAc assay %Inhibiton (100 µM)
Protocol: Compounds were transferred using a Labcyte Echo550 acoustic dispenser to obtain a 12-point serial dilution of 0.001 to 100 μM. Next, PARK7 (15 μL, final concentration of 0.1 μM) was dispensed with a Biotek MultiFlowFX liquid dispenser and incubated for 1 h, followed by dispensing the substrate DiFMUAc (5 μL, final concentration of 300 μM). The fluorescence intensity (FI) signal was monitored with a BMG Labtech PHERAstar plate reader (λex/em 350/450 nm) for 1 h.
The validation was performed in the PBS buffer with a reaction volume of 20 μL per well in triplicate. […] Next, PARK7 (15 μL, final concentration 0.1 μM) was dispensed with a Biotek MultiFlowFX liquid dispenser and incubated for 2 h, followed by dispensing the substrate DiFMUAc (5 μL, final concentration 300 μM). The FI signal was monitored with a BMG Labtech PHERAstar plate reader (λex/em 350/450 nm) for 1 h. The increase of FI signal compared with reference controls was used to calculate the remaining enzyme activity. The inhibition percentage of these 22 compounds was plotted as a heatmap using GraphPad Prism 9.0.1 software. Color gradients indicate inhibition percentage, no inhibiton (white) and full inhibition (blue).

[4] = 12.5 µM compound, PARK7 0.2 μM, 1 h preincubation, JYQ-107 20 nM
[5] = 37.5 µM compound, PARK7 0.2 μM, 1 h preincubation, JYQ-107 20 nM
[6] = 100 µM compound, PARK7 0.2 μM, 1 h preincubation, JYQ-107 20 nM
[7] = 12.5 µM compound, PARK7 0.1 μM, 2 h preincubation, DiFMUAc 300 μM
[8] = 37.5 µM compound, PARK7 0.1 μM, 2 h preincubation, DiFMUAc 300 μM
[9] = 100 µM compound, PARK7 0.1 μM, 2 h preincubation, DiFMUAc 300 μM

Inhibition of PARK7 (disappearance of 8RK59-labeled band) (PARK7 [1]): less efficiently
Inhibition of UCHL1 (disappearance of 8RK59-labeled band) (UCHL1): fully inhibit
Compound: N#CN1CC[C@H](C(=O)Nc2nc3c(s2)CN(C(=O)CCCCBr)CC3)C1 [JYQ-78, (S)-N-(5-(5-Bromopentanoyl)-4,5,6,7-tetrahydrothiazolo[5,4-c]pyridin-2-yl)-1-cyanopyrrolidine-3-carboxamide]

Inhibition of PARK7 (disappearance of 8RK59-labeled band) (PARK7 [1]): hardly show any inhibition
Inhibition of UCHL1 (disappearance of 8RK59-labeled band) (UCHL1): hardly show any inhibition
Compound: (3S)-N-(5-((1S,2R,5R)-Adamantane-2-carbonyl)-4,5,6,7-tetrahydrothiazolo[5,4-c]pyridin-2-yl)-1-cyanopyrrolidine-3-carboxamide [JYQ-83]

Inhibition of PARK7 in FP assay (PARK7 [2]; increasing concentrations, 60 min preincubation, Figure S7): no inhibition
Inhibition of PARK7 (disappearance of 8RK59-labeled band) (PARK7 [1]): hardly show any inhibition
Inhibition of UCHL1 (disappearance of 8RK59-labeled band) (UCHL1): hardly show any inhibition
Compound: N#CN1CC[C@H](C(=O)Nc2nc3c(s2)CN(C(=O)c2cn(CC4CCCO4)nn2)CC3)C1 (stereo partly drawn) [JYQ-55, (3S)-1-Cyano-N-(5-(1-((tetrahydrofuran-2-yl)methyl)-1H-1,2,3-triazole-4-carbonyl)-4,5,6,7-tetrahydrothiazolo[5,4-c]pyridin-2-yl)pyrrolidine-3-carboxamide]

Inhibition of PARK7 (disappearance of 8RK59-labeled band) (PARK7 [1]): less efficiently
Inhibition of UCHL1 (disappearance of 8RK59-labeled band) (UCHL1): fully inhibit
Compound: CN1C(=O)CC(C(=O)N2CCc3nc(NC(=O)[C@H]4CCN(C#N)C4)sc3C2)[C@@H]1c1cccnc1 (stereo partly drawn) [JYQ-79, (3S)-1-Cyano-N-(5-((2R)-1-methyl-5-oxo-2-(pyridin-3-yl)pyrrolidine-3-carbonyl)-4,5,6,7-tetrahydrothiazolo[5,4-c]pyridin-2-yl)pyrrolidine-3-carboxamide]

Inhibition of PARK7 (disappearance of 8RK59-labeled band) (PARK7 [1]): less efficiently
Inhibition of UCHL1 (disappearance of 8RK59-labeled band) (UCHL1): fully inhibit
Compound: N#CN1CC[C@H](C(=O)Nc2nc3c(s2)CN(C(=O)Cc2ccncc2)CC3)C1 [JYQ-76, (S)-1-Cyano-N-(5-(2-(pyridin-4-yl)acetyl)-4,5,6,7-tetrahydrothiazolo[5,4-c]pyridin-2-yl)pyrrolidine-3-carboxamide]

Compound: Cc1ccc(C(=O)O)cc1S(=O)(=O)F [Z3242849759]
FP assay %Inhibiton (12.5 µM) (PARK7 [2]; [4]): 100.0%
FP assay %Inhibiton (37.5 µM) (PARK7 [2]; [5]): 100.0%
FP assay %Inhibiton (100 µM) (PARK7 [2]; [6]): 100.0%
DiFMuAc assay %Inhibiton (12.5 µM) (PARK7 [3]; [7]): 93.6%
DiFMuAc assay %Inhibiton (37.5 µM) (PARK7 [3]; [8]): 95.8%
DiFMuAc assay %Inhibiton (100 µM) (PARK7 [3]; [9]): 93.1%

Inhibition of PARK7 (disappearance of 8RK59-labeled band) (PARK7 [1]): hardly show any inhibition
Inhibition of UCHL1 (disappearance of 8RK59-labeled band) (UCHL1): hardly show any inhibition
Compound: N#CN1CC[C@H](C(=O)Nc2nc3c(s2)CN(C(=O)c2ccc(Br)cc2)CC3)C1 [JYQ-77, (S)-N-(5-(4-Bromobenzoyl)-4,5,6,7-tetrahydrothiazolo[5,4-c]pyridin-2-yl)-1-cyanopyrrolidine-3-carboxamide]

inhibition at 12.5 µM (PARK7 [2]; [4]): 85.7%
inhibition at 37.5 µM (PARK7 [2]; [5]): 100%
inhibition at 100 µM (PARK7 [2]; [6]): 100%
inhibition at 12.5 µM (PARK7 [3]; [7]): 81.8%
inhibition at 37.5 µM (PARK7 [3]; [8]): 94.6%
inhibition at 100 µM (PARK7 [3]; [9]): 97.4%
Compound: CC1CCC(N(C)C(=O)CCl)CC1 (stereo not shown) [Z85923410]

Compound: O=C(NNS(=O)(=O)c1cccc(S(=O)(=O)F)c1)C1CCC1 [Z1764398070]
inhibition at 12.5 µM (PARK7 [2]): 100%
inhibition at 37.5 µM (PARK7 [2]): 100%
inhibition at 100 µM (PARK7 [2]): 100%
inhibition at 12.5 µM (PARK7 [3]): 95.7%
inhibition at 37.5 µM (PARK7 [3]): 98%
inhibition at 100 µM (PARK7 [3]): 96.8%

Compound: CCCc1nnc(NS(=O)(=O)c2cccc(S(=O)(=O)F)c2)o1 [Z2509455014]
inhibition at 12.5 µM (PARK7 [2]): 100%
inhibition at 37.5 µM (PARK7 [2]): 100%
inhibition at 100 µM (PARK7 [2]): 100%
inhibition at 12.5 µM (PARK7 [3]): 97.8%
inhibition at 37.5 µM (PARK7 [3]): 99.3%
inhibition at 100 µM (PARK7 [3]): 96.5%

inhibition at 12.5 µM (PARK7 [2]; [4]): 100%
inhibition at 37.5 µM (PARK7 [2]; [5]): 100%
inhibition at 100 µM (PARK7 [2]; [6]): 100%
inhibition at 12.5 µM (PARK7 [3]; [7]): 94.3%
inhibition at 37.5 µM (PARK7 [3]; [8]): 95.5%
inhibition at 100 µM (PARK7 [3]; [9]): 93.2%
Compound: O=C(CCl)C1CCOCC1 [Z2491498268]

Compound: O=[N+]([O-])c1cccc(S(=O)(=O)F)c1 [Z3243697698]
FP assay %Inhibiton (12.5 µM) (PARK7 [2]; [4]): 100.0%
FP assay %Inhibiton (37.5 µM) (PARK7 [2]; [5]): 100.0%
FP assay %Inhibiton (100 µM) (PARK7 [2]; [6]): 100.0%
DiFMuAc assay %Inhibiton (12.5 µM) (PARK7 [3]; [7]): 100.0%
DiFMuAc assay %Inhibiton (37.5 µM) (PARK7 [3]; [8]): 100.0%
DiFMuAc assay %Inhibiton (100 µM) (PARK7 [3]; [9]): 100.0%
